Experimental findings from US20260242395A1, “AMINOHETEROARYL KINASE INHIBITORS” (ALLORION THERAPEUTICS INC, priority 2022, published 2026) are described below.

One assay addresses T1, CDK6/CyclinD3 (Homo sapiens, UniProt Q00534).
T1 construct: purchased Carna 04-107
Description: CDK6/CyclinD3 kinase inhibitory activity (Caliper mobility shift). The format is biochemical. The note with it: enzyme 15 nM, ATP 800 μM, 28° C. 30 min; read-out: CDK6/Cyclin D3 IC50. As for the experimental part:
CDK6/CyclinD3 kinase inhibitory activity (IC50): 5 μl of various dilutions of test compound in 1× kinase buffer (50 mM HEPES pH 7.5, 10 mM MgCl2, 2 mM DTT and 0.01% Brij-35) was mixed with 10 μL of CDK6/CyclinD3 (Carna, 04-107 #, final concentration 15 nM in 1× Kinase buffer) in 384 plates and incubated at room temperature for 10 min. To initiate each reaction, 10 μL of peptide solution containing fluorescently-labeled -peptide 8(5-FAM-IPTSPITTTYFFFKKK-COOH, GL, 112396 #, final concentration 3000 nM) and ATP (final concentration 800 μM for CDK6/CyclinD3 in 1× Kinase buffer was added to each of the wells containing test compound and CDK6/CyclinD3. The reaction is then allowed to proceed at 28° C. for 30 min and terminated by the addition of 25 μL stop buffer (100 mM HEPES pH 7.5, 50 mM EDTA, 0.2% Coating Reagent #3 (Perkin Elmer, 760050 #) and 0.015% Brij-35).
(§1) Following the kinase reaction, Caliper EZ reader II (Downstream voltages: −500V, Upstream voltages: −2250V, Base pressure −0.5 PSI, Screen pressure −1.2 PSI) was used to separate the phosphorylated (product) and the unphosphorylated (substrate) fluorescently-labeled peptide 8 based on their different mobility. Both substrate and product were measured and the ratio of these values were used to generate % conversion by Caliper EZ reader II. These conversion values were then transformed into % inhibition of kinase activity using the formula: % Inhibition=[(MA−X)/(MA−MI)]×100% where MA=conversion value of DMSO only controls, MI=conversion value of no enzyme controls and X=conversion value at any given compound dose. IC50 values were then calculated by plotting dose-response curves and then using the XLfit application in Excel software.

For a further assay, the target named is T2, CDK4/CyclinD1 (Homo sapiens, UniProt P11802).
T2 construct: purchased ProQinase 0142-0143-1
Description: CDK4/CyclinD1 kinase inhibitory activity (Caliper mobility shift). It is filed as biochemical. The note with it: enzyme 20 nM, ATP 672 uM, 28° C. 30 min; read-out: CDK4/Cyclin D1 IC50. As for the experimental part: CDK4/CyclinD1 kinase inhibitory activity (IC50): 5 μl of various dilutions of test compound in 1× kinase buffer (20 mM HEPES, pH 7.5, 10 mM MgCl2, 2 mM DTT and 0.01% Triton X-100) was mixed with 10 μL of either CDK4/Cyclin D1 (ProQinase, 0142-0143-1 #, final concentration 20 nM in 1× Kinase buffer) or in 384 plates and incubated at room temperature for 10 min. To initiate each reaction, 10 μL of peptide solution containing fluorescently-labeled-peptide 8(5-FAM-IPTSPITTTYFFFKKK-COOH, GL, 112396 #, final concentration 3000 nM) and ATP (final concentration 672 uM for CDK4/CyclinD1) in 1×Kinase buffer was added to each of the wells containing test compound and CDK4/CyclinD1 mixture. The reaction is then allowed to proceed at 28° C. for 30 min and terminated by the addition of 25 μL stop buffer (100 mM HEPES pH 7.5, 50 mM EDTA, 0.2% Coating Reagent #3 (Perkin Elmer, 760050 #) and 0.015% Brij-35).
as §1

T1 sequence (Q00534 whole entry): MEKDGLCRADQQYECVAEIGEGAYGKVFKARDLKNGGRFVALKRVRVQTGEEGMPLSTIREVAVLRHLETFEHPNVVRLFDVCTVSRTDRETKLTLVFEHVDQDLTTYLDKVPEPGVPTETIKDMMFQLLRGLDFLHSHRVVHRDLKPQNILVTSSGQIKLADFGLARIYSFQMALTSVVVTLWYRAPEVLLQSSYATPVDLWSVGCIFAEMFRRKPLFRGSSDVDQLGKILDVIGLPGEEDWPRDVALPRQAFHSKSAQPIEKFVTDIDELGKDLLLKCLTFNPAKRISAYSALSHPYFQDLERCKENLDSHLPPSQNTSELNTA
T1 sequence (P30281 whole entry partner): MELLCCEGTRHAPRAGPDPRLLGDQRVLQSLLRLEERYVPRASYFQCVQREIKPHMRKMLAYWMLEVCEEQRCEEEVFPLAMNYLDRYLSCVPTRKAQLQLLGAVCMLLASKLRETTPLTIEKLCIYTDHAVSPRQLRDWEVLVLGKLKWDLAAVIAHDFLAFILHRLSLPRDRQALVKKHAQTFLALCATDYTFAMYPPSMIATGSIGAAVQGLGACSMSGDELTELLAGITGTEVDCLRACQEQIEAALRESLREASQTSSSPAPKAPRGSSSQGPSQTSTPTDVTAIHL
T2 sequence (P11802 whole entry): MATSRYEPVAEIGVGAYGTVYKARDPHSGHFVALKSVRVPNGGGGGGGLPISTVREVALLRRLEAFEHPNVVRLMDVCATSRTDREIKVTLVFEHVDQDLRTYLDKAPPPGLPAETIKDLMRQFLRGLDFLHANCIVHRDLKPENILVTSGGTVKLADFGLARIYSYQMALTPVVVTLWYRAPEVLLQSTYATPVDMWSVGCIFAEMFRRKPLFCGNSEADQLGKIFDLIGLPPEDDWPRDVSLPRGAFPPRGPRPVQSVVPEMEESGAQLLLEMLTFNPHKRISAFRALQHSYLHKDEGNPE
T2 sequence (P24385 whole entry partner): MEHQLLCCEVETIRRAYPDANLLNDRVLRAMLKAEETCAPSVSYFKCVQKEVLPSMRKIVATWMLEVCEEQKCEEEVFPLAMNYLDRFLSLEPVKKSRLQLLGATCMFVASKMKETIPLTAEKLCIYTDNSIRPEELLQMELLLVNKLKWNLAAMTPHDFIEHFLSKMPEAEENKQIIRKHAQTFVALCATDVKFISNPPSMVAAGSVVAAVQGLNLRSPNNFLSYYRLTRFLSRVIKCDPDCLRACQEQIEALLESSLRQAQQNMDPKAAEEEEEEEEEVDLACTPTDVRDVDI

As for `CNC(C)c1cnc2c(F)cc(-c3nc(N[C@@H]4CCOC[C@H]4O)ncc3Cl)cc2c1` (single isomer, unassigned) [Example 32b], the IC50 on CDK6/CyclinD3 was 100 to 1000 nM; at CDK4/CyclinD1, 10 to 100 nM.
Regarding `Cc1c(C(C)NC2CC2)cnc2c(F)cc(-c3nc(N[C@@H]4CCOC[C@H]4O)ncc3F)cc12` (single isomer, unassigned) [Example 93a], the figures for the IC50 at CDK6/CyclinD3 and at CDK4/CyclinD1 were 100 to 1000 nM and 10 to 100 nM, respectively.
`CC(C)(O)c1cnc2c(F)cc(-c3nc(N[C@@H]4CCOC[C@H]4O)ncc3Cl)cc2c1F` [Example 53]: the IC50 on CDK6/CyclinD3 is 100 to 1000 nM; on CDK4/CyclinD1 it was below 10 nM.
For `Cc1cc(C(C)(C)O)c2cc(-c3nc(N[C@@H]4CCOC[C@H]4O)ncc3F)cc(F)c2n1` [Example 76], the IC50 on CDK6/CyclinD3 lay within 100 to 1000 nM; at CDK4/CyclinD1 it was 10 to 100 nM.
As for `COC1c2cnc3c(F)cc(-c4nc(N[C@@H]5CCOC[C@H]5O)ncc4F)cc3c2CNC1(C)C` (single isomer, unassigned) [Example 108a], the IC50 was at least 1000 nM at CDK6/CyclinD3 and 10 to 100 nM on CDK4/CyclinD1.
For `[2H]c1nc2c(F)cc(-c3ccnc(N[C@@H]4CCOC[C@H]4O)n3)cc2c2c1CC1(CC1)NC2` [Example 66], the figures for the IC50 on CDK6/CyclinD3 and on CDK4/CyclinD1 were 100 to 1000 nM and 10 to 100 nM, respectively.
In the case of `CNC(C)c1cc2cc(-c3nc(N[C@@H]4CCOC[C@H]4O)ncc3F)cc(F)c2nc1C` (single isomer, unassigned) [Example 54a], the IC50 at CDK6/CyclinD3 is 100 to 1000 nM; at CDK4/CyclinD1, below 10 nM.
For `CC(C)(O)C1COc2c(F)cc(-c3nc(N[C@@H]4CCOC[C@H]4O)ncc3Cl)cc2C1` (stereo partly shown) [Example 46], in that order: 100 to 1000 nM and below 10 nM.
For the molecule `Cc1nc2c(F)cc(-c3nc(N[C@@H]4CCOC[C@H]4O)ncc3F)cc2c2c1CC(C)(C)NC2` [Example 92], the IC50 at CDK6/CyclinD3 is 100 to 1000 nM; at CDK4/CyclinD1 it was below 10 nM.
As for `Cc1cc(C(C)(C)O)c2cc(-c3nc(N[C@@H]4CCOC[C@H]4O)ncc3Cl)ccc2n1` [Example 4, (3S,4R)-4-((5-chloro-4-(4-(2-hydroxypropan-2-yl)-2-methylquinolin-6-yl)pyrimidin-2-yl)amino)tetrahydro-2H-pyran-3-ol], the IC50 on CDK6/CyclinD3 and on CDK4/CyclinD1 was 100 to 1000 nM throughout.
`CC(O)c1cnc2c(F)cc(-c3nc(N[C@@H]4CCOC[C@H]4O)ncc3Cl)cc2c1Cl` (single isomer, unassigned) [Example 40b]: the IC50 is 100 to 1000 nM on CDK6/CyclinD3 and below 10 nM on CDK4/CyclinD1.
Take `Cc1nc2c(F)cc(-c3nc(N[C@@H]4CCOC[C@H]4O)ncc3F)cc2cc1C(C)NC1CC1` (single isomer, unassigned) [Example 74b]: the figures for the IC50 on CDK6/CyclinD3 and on CDK4/CyclinD1 were 100 to 1000 nM and below 10 nM, respectively.
Consider `CNC(C)c1cc2cc(-c3nc(N[C@@H]4CCOC[C@H]4O)ncc3F)cc(F)c2nc1C` (single isomer, unassigned) [Example 54b], for which the IC50 on CDK6/CyclinD3 is 100 to 1000 nM; at CDK4/CyclinD1, below 10 nM.
For `[2H]c1nc(N[C@@H]2CCOC[C@H]2O)nc(-c2cc(F)c3nc(C)c(C(C)O)c(C)c3c2)c1Cl` (single isomer, unassigned) [Example 85b], in that order: 10 to 100 nM and below 10 nM.
For `Cc1nc2c(F)cc(-c3nc(N[C@@H]4CCOC[C@H]4O)ncc3Cl)cc2c2c1CCNC2` [Example 33], in that order: 100 to 1000 nM and below 10 nM.
With `CC1NCCc2cnc3c(F)cc(-c4nc(N[C@@H]5CCOC[C@H]5O)ncc4Cl)cc3c21` (single isomer, unassigned) [Example 31b], the results for the IC50 on CDK6/CyclinD3 and on CDK4/CyclinD1 were 100 to 1000 nM and below 10 nM, respectively.
For `CC1(C)NCCc2cnc3c(F)cc(-c4nc(N[C@@H]5CCOC[C@H]5O)ncc4Cl)cc3c21` [Example 109], in that order: 100 to 1000 nM and below 10 nM.
With `Cc1c(C(C)NC2CC2)cnc2c(F)cc(-c3nc(N[C@@H]4CCOC[C@H]4O)ncc3Cl)cc12` (single isomer, unassigned) [Example 91a], the IC50 was in the range of 100 to 1000 nM at CDK6/CyclinD3 and 10 to 100 nM at CDK4/CyclinD1.
In the case of `[2H]c1nc(N[C@@H]2CCOC[C@H]2O)nc(-c2cc(F)c3nc([2H])c(C(C)(C)O)c(C)c3c2)c1F` [Example 95], the IC50 is 10 to 100 nM on CDK6/CyclinD3 and below 10 nM on CDK4/CyclinD1.
On to `CC(C)(O)C1COc2c(F)cc(-c3nc(N[C@@H]4CCOC[C@H]4O)ncc3Cl)cc2C1` (stereo partly shown) [Example 47], for which the results for the IC50 at CDK6/CyclinD3 and at CDK4/CyclinD1 were 100 to 1000 nM and 10 to 100 nM, respectively.
Turning to `CC1(C)Cc2cnc3c(F)cc(-c4nc(N[C@@H]5COC[C@H]5O)ncc4Cl)cc3c2CN1` [Example 50], the IC50 on CDK6/CyclinD3 was at least 1000 nM; at CDK4/CyclinD1, 10 to 100 nM.
For the molecule `CC(NC1CC1)c1cnc2c(F)cc(-c3nc(N[C@@H]4CCOC[C@H]4O)ncc3Cl)cc2c1Cl` (single isomer, unassigned) [Example 90b], the IC50 is 100 to 1000 nM on CDK6/CyclinD3 and below 10 nM at CDK4/CyclinD1.
For `Cc1n[nH]c2c1-c1cc(-c3nc(N[C@@H]4CCOC[C@H]4O)ncc3Cl)ccc1OC2` [Example 13, (3S,4R)-4-((5-chloro-4-(1-methyl-3,4-dihydrochromeno[3,4-c]pyrazol-8-yl)pyrimidin-2-yl)amino)tetrahydro-2H-pyran-3-ol], in that order: 100 to 1000 nM and 10 to 100 nM.
In the case of `[2H]c1nc(N[C@@H]2CCOC[C@H]2O)nc(-c2cc(F)c3nc([2H])c4c(c3c2)CNC2(CC2)C4)c1F` [Example 71], the IC50 is 100 to 1000 nM on CDK6/CyclinD3 and below 10 nM on CDK4/CyclinD1.
Regarding `CC(C)(O)c1cnc2c(F)cc(-c3nc(Nc4ccc(-c5cn[nH]c5)cn4)ncc3F)cc2c1Cl` [Example 55], the IC50 on CDK6/CyclinD3 is at least 1000 nM; at CDK4/CyclinD1 it was below 10 nM.
Take `Cc1nc2c(F)cc(-c3nc(N[C@@H]4CCOC[C@H]4O)ncc3F)cc2cc1C(C)(C)O` [Example 51]: the IC50 was 100 to 1000 nM at CDK6/CyclinD3 and below 10 nM at CDK4/CyclinD1.
In the case of `[2H]C1([2H])c2cnc3c(F)cc(-c4nc(N[C@@H]5CCOC[C@H]5O)ncc4F)cc3c2CNC1(C)C` [Example 110], the values for the IC50 on CDK6/CyclinD3 and at CDK4/CyclinD1 were 100 to 1000 nM and below 10 nM, respectively.
Turning to `CNC(C)c1cnc2c(F)cc(-c3nc(N[C@@H]4CCOC[C@H]4O)ncc3F)cc2c1C` (single isomer, unassigned) [Example 59b], the figures for the IC50 on CDK6/CyclinD3 and on CDK4/CyclinD1 were 100 to 1000 nM and 10 to 100 nM, respectively.
For `CC1(O)CCc2nc3c(F)cc(-c4nc(N[C@@H]5CCOC[C@H]5O)ncc4Cl)cc3cc21` (single isomer, unassigned) [Example 38a], in that order: 10 to 100 nM and below 10 nM.
With `O[C@@H]1COCC[C@H]1Nc1ncc(Cl)c(-c2cc(F)c3ncc4c(c3c2)C2CCC(C4)N2)n1` (single isomer, unassigned) [Example 20a], the IC50 is at least 1000 nM on CDK6/CyclinD3 and 100 to 1000 nM on CDK4/CyclinD1.
As for `CC(C)(O)c1cnc2ccc(-c3nc(N[C@@H]4CCOC[C@H]4O)ncc3Cl)cc2c1` [Example 6, (3S,4R)-4-((5-chloro-4-(3-(2-hydroxypropan-2-yl)quinolin-6-yl)pyrimidin-2-yl)amino)tetrahydro-2H-pyran-3-ol], the IC50 lay within 100 to 1000 nM at CDK6/CyclinD3 and 10 to 100 nM at CDK4/CyclinD1.
For `COc1c(C(C)(C)O)cnc2c(F)cc(-c3nc(N[C@@H]4CCOC[C@H]4O)ncc3Cl)cc12` [Example 43], in that order: 100 to 1000 nM and below 10 nM.
On to `CC(NC1CC1)c1cnc2c(F)cc(-c3nc(N[C@@H]4CCOC[C@H]4O)ncc3Cl)cc2c1Cl` (single isomer, unassigned) [Example 90a], for which the IC50 on CDK6/CyclinD3 was 100 to 1000 nM; on CDK4/CyclinD1, 10 to 100 nM.
The like results for `CC1(O)CCc2nc3c(F)cc(-c4nc(N[C@@H]5CCOC[C@H]5O)ncc4Cl)cc3cc21` (single isomer, unassigned) [Example 38b] were, in that order, 10 to 100 nM and below 10 nM.
Turning to `Cc1nc2c(F)cc(-c3nc(N[C@@H]4CCOC[C@H]4O)ncc3Cl)cc2cc1C1CCCN1` (single isomer, unassigned) [Example 57b], the IC50 is at least 1000 nM at CDK6/CyclinD3 and 10 to 100 nM at CDK4/CyclinD1.
